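Where inhibition never reached the appropriate level, the endpoint shown equals the highest concentration tested. Otherwise, values were interpolated linearly from a five-concentration, 48-hour dose response in 96-well plates. GI50 marks 50% less growth. TGI: concentration producing complete growth inhibition.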
Columns and labels:
Test in all cases: growth of human tumour cells (NCI), 48 h
786-0 renal = tested on: 786-0 renal
A498 renal = tested on: A498 renal
A549 NSCLC = tested on: A549 NSCLC
ACHN renal = tested on: ACHN renal
BT-549 breast = tested on: BT-549 breast
CAKI-1 renal = tested on: CAKI-1 renal
CCRF-CEM leukemia = tested on: CCRF-CEM leukemia
COLO 205 colon = tested on: COLO 205 colon
DU-145 prostate = tested on: DU-145 prostate
EKVX NSCLC = tested on: EKVX NSCLC
HCT-116 colon = tested on: HCT-116 colon
HCT-15 colon = tested on: HCT-15 colon
HL-60(TB) leukemia = tested on: HL-60(TB) leukemia
HOP-62 NSCLC = tested on: HOP-62 NSCLC
HOP-92 NSCLC = tested on: HOP-92 NSCLC
HS 578T breast = tested on: HS 578T breast
HT29 colon = tested on: HT29 colon
IGROV1 ovarian = tested on: IGROV1 ovarian
K-562 leukemia = tested on: K-562 leukemia
KM12 colon = tested on: KM12 colon
LOX IMVI melanoma = tested on: LOX IMVI melanoma
M14 melanoma = tested on: M14 melanoma
MALME-3M melanoma = tested on: MALME-3M melanoma
MCF7 breast = tested on: MCF7 breast
MDA-MB-231 breast = tested on: MDA-MB-231 breast
MDA-MB-435 = tested on: MDA-MB-435
MOLT-4 leukemia = tested on: MOLT-4 leukemia
NCI-H226 lung = tested on: NCI-H226 lung
NCI-H23 lung = tested on: NCI-H23 lung
NCI-H460 lung = tested on: NCI-H460 lung
NCI-H522 lung = tested on: NCI-H522 lung
NCI/ADR-RES ovarian = tested on: NCI/ADR-RES ovarian
OVCAR-4 ovarian = tested on: OVCAR-4 ovarian
OVCAR-5 ovarian = tested on: OVCAR-5 ovarian
OVCAR-8 ovarian = tested on: OVCAR-8 ovarian
PC-3 prostate = tested on: PC-3 prostate
RPMI-8226 leukemia = tested on: RPMI-8226 leukemia
RXF 393 renal = tested on: RXF 393 renal
SF-268 CNS = tested on: SF-268 CNS
SF-295 CNS = tested on: SF-295 CNS
SF-539 CNS = tested on: SF-539 CNS
SK-MEL-2 melanoma = tested on: SK-MEL-2 melanoma
SK-MEL-28 melanoma = tested on: SK-MEL-28 melanoma
SK-MEL-5 melanoma = tested on: SK-MEL-5 melanoma
SK-OV-3 ovarian = tested on: SK-OV-3 ovarian
SN12C renal = tested on: SN12C renal
SNB-19 CNS = tested on: SNB-19 CNS
SNB-75 CNS = tested on: SNB-75 CNS
SR leukemia = tested on: SR leukemia
SW-620 colon = tested on: SW-620 colon
T-47D breast = tested on: T-47D breast
U251 CNS = tested on: U251 CNS
UACC-257 melanoma = tested on: UACC-257 melanoma
UACC-62 melanoma = tested on: UACC-62 melanoma
UO-31 renal = tested on: UO-31 renal

For `O=C1c2cccnc2-c2nc(-c3cccnc3)cc3c2c1nc1ccccc13`, the GI50 (786-0 renal) was 2.74 µM, the TGI (786-0 renal) was 8.85 µM and the GI50 (A498 renal) was 17.7 µM. It also gave a TGI (A498 renal) of 46.8 µM, a GI50 (A549 NSCLC) of 3.97 µM and a TGI (A549 NSCLC) of 15.6 µM. For the same compound, the GI50 (ACHN renal) was 1.55 µM, the TGI (ACHN renal) was 2.88 µM and the GI50 (BT-549 breast) was 4.53 µM. For the same compound, the TGI (BT-549 breast) was 9.5 µM, the GI50 (CAKI-1 renal) was 6.96 µM and the TGI (CAKI-1 renal) was 22.8 µM. For the same compound, the GI50 (CCRF-CEM leukemia) was 5.23 µM, the TGI (CCRF-CEM leukemia) was > 100 µM and the GI50 (COLO 205 colon) was 3.33 µM. It also gave a TGI (COLO 205 colon) of 10.9 µM, a GI50 (DU-145 prostate) of 3 µM and a TGI (DU-145 prostate) of 8.31 µM. For the same compound, the GI50 (EKVX NSCLC) was 10.6 µM, the TGI (EKVX NSCLC) was 32.7 µM and the GI50 (HCT-116 colon) was 2.8 µM. The TGI (HCT-116 colon) was > 32.7 µM, the GI50 (HCT-15 colon) was 1.63 µM and the TGI (HCT-15 colon) was 4.58 µM. For the same compound, the GI50 (HL-60(TB) leukemia) was 2.11 µM, the TGI (HL-60(TB) leukemia) was > 100 µM and the GI50 (HOP-62 NSCLC) was 1.73 µM. The TGI (HOP-62 NSCLC) was 3.22 µM, the GI50 (HOP-92 NSCLC) was 6.44 µM and the TGI (HOP-92 NSCLC) was 80.6 µM. For the same compound, the GI50 (HS 578T breast) was 2.94 µM, the TGI (HS 578T breast) was > 20.9 µM and the GI50 (HT29 colon) was 2.52 µM. The GI50 (IGROV1 ovarian) was 3.12 µM, the TGI (IGROV1 ovarian) was 28.4 µM and the GI50 (K-562 leukemia) was 1.67 µM. The TGI (K-562 leukemia) was > 100 µM, the GI50 (KM12 colon) was 4.16 µM and the TGI (KM12 colon) was > 44.5 µM. For the same compound, the GI50 (LOX IMVI melanoma) was 2.8 µM, the TGI (LOX IMVI melanoma) was > 25.1 µM and the GI50 (M14 melanoma) was 1.93 µM. For the same compound, the TGI (M14 melanoma) was 3.51 µM, the GI50 (MALME-3M melanoma) was 17.6 µM and the TGI (MALME-3M melanoma) was 32.4 µM. For the same compound, the GI50 (MCF7 breast) was 1.64 µM, the TGI (MCF7 breast) was 3.32 µM and the GI50 (MDA-MB-231 breast) was 4.43 µM. The TGI (MDA-MB-231 breast) was > 72 µM, the GI50 (MDA-MB-435) was 5.58 µM and the TGI (MDA-MB-435) was 32 µM. The GI50 (MOLT-4 leukemia) was 3.21 µM, the TGI (MOLT-4 leukemia) was > 41.3 µM and the GI50 (NCI-H226 lung) was 2.02 µM. For the same compound, the TGI (NCI-H226 lung) was 5.53 µM, the GI50 (NCI-H23 lung) was 3.7 µM and the TGI (NCI-H23 lung) was 20.7 µM. The GI50 (NCI-H460 lung) was 2.16 µM, the GI50 (NCI-H522 lung) was 1.74 µM and the TGI (NCI-H522 lung) was 4.35 µM. The GI50 (NCI/ADR-RES ovarian) was 3.12 µM, the TGI (NCI/ADR-RES ovarian) was > 23.9 µM and the GI50 (OVCAR-4 ovarian) was 5.07 µM. It also gave a TGI (OVCAR-4 ovarian) of 19.8 µM, a GI50 (OVCAR-5 ovarian) of 12.2 µM and a TGI (OVCAR-5 ovarian) of 30.1 µM. The GI50 (OVCAR-8 ovarian) was 1.31 µM, the TGI (OVCAR-8 ovarian) was 3.96 µM and the GI50 (PC-3 prostate) was 4.4 µM. The TGI (PC-3 prostate) was 26.7 µM, the GI50 (RPMI-8226 leukemia) was 2.59 µM and the TGI (RPMI-8226 leukemia) was > 100 µM. The GI50 (RXF 393 renal) was 3.95 µM, the TGI (RXF 393 renal) was 11.3 µM and the GI50 (SF-268 CNS) was 3.73 µM. For the same compound, the TGI (SF-268 CNS) was > 26.5 µM, the GI50 (SF-295 CNS) was 1.92 µM and the TGI (SF-295 CNS) was 3.71 µM. For the same compound, the GI50 (SF-539 CNS) was 1.72 µM, the TGI (SF-539 CNS) was 3.6 µM and the GI50 (SK-MEL-2 melanoma) was 18 µM. It also gave a TGI (SK-MEL-2 melanoma) of 33.8 µM, a GI50 (SK-MEL-28 melanoma) of 20.5 µM and a TGI (SK-MEL-28 melanoma) of 59 µM. For the same compound, the GI50 (SK-MEL-5 melanoma) was 1.55 µM, the TGI (SK-MEL-5 melanoma) was 3.46 µM and the GI50 (SK-OV-3 ovarian) was 15.3 µM. It also gave a TGI (SK-OV-3 ovarian) of 29.8 µM, a GI50 (SN12C renal) of 2.18 µM and a TGI (SN12C renal) of 5.02 µM. It also gave a GI50 (SNB-19 CNS) of 5.59 µM, a TGI (SNB-19 CNS) of 21 µM and a GI50 (SNB-75 CNS) of 2.34 µM. For the same compound, the TGI (SNB-75 CNS) was 6.91 µM, the TGI (SR leukemia) was > 100 µM and the GI50 (SW-620 colon) was 2.28 µM. For the same compound, the TGI (SW-620 colon) was 5.63 µM, the GI50 (T-47D breast) was 10.4 µM and the TGI (T-47D breast) was > 65.2 µM. The GI50 (U251 CNS) was 3.61 µM, the TGI (U251 CNS) was > 100 µM and the GI50 (UACC-257 melanoma) was 10.1 µM. It also gave a TGI (UACC-257 melanoma) of 15.1 µM, a GI50 (UACC-62 melanoma) of 13.3 µM and a TGI (UACC-62 melanoma) of 28.3 µM. The GI50 (UO-31 renal) was 15.2 µM and the TGI (UO-31 renal) was 37.3 µM.

Source: PubChem BioAssay (NCI)
